Laboratory results published in PMC3733996 (Bioorganic & medicinal chemistry letters, 2013).

Biological target: serotonin transporter (SERT) (Rattus norvegicus, UniProt P31652)
Test: Displacement of [3H]citalopram from serotonin transporter in rat brain tissue
Type: binding
Conditions: ratio of Ki DAT / Ki SERT

serotonin transporter (SERT), sequence (P31652 whole entry): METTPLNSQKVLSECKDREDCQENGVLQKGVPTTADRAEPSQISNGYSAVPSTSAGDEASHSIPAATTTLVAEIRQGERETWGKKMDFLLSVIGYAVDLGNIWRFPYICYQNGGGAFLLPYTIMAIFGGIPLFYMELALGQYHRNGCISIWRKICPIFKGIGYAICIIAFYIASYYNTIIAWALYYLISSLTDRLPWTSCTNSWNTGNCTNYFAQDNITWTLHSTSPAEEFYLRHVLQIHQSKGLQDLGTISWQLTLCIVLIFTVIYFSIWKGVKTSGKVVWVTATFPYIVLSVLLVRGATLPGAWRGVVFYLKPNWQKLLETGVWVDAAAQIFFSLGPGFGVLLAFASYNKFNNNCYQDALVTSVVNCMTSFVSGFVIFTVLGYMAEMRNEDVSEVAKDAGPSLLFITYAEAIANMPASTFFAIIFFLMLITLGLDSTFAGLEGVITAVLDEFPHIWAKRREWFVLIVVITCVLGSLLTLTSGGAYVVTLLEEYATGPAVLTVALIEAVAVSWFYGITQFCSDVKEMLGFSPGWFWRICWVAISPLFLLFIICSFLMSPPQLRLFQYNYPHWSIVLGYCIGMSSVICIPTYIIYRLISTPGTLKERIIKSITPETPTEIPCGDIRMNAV

| Compound | DAT/SERT |
| --- | --- |
| Cl.Clc1ccc(COC2(c3ccc(Cl)cc3)CNC2)cc1 [6e] | 1,100 |
| Cl.Clc1ccc(COC2(c3ccc(Cl)c(Cl)c3)CNC2)cc1 [6h] | 1,000 |
